Source: patent publication US6673840B1, “Use of lipoxygenase metabolite of arachidonic acid and its derivatives in capsaicin-channel agonist” (priority 1998, dated 2004)
Entries after “also recorded” stand apart in the source; their conditions may differ. Each block holds one compound with its values, some of them ahead of it.

What was measured:
CAP channel [1] = biological target: T1, CAP channel (Rattus norvegicus, UniProt O35433); assay: single channel current recording with patch clamp technique, inside-out membrane patches of cultured sensory neurons; format: cell-based; conditions: for Hill coefficient: concentration-response curve of channel activation; for amplitude of the single channel currents: membrane potential of 60 mV; for relative agonistic potency (Po as percentage of Po at 0.5 μM CAP): metabolites at 10~20 μM; for generation of single channel currents (activation of CAP channel): applied to intracellular side of membrane patch, CAP 0.5 μM, 12-HPETE 2 μM
T1 construct: administered at an amount of 10˜20 μM to the membrane patches of cultured sensory neurons; endogenous in cells; host or cells: cultured sensory neurons (inside-out membrane patches)
Method: In the present invention, use was made of a single channel recording method with the aid of a patch clamp technique (Hamill et al., Pfl gers Arch 391:85-100, 1981) in order to know whether lipoxygenase metabolites activate CAP channels or receptors or not. […] Because the tests are performed in isolated membrane patches without the mediation of intracellular second messengers, lipoxygenase metabolites are believed to exert a direct action on the CAP channel.
An examination was made on the efficiency with which the various lipoxygenase metabolites activate CAP channels. To this end, a patch clamp technique was used to record the single channel current generated in the CAP channel to which various lipoxygenase metabolites were applied to measure the open probability (Po) of the CAP channel. To compare the relative potency of each metabolite, the effects of the lipoxygenase metabolites on CAP channels were measured with a reference to 0.5 μM CAP.
A single channel current recording method using a patch clamp technique (Hamill et al., supra; Oh et al., 1996a) was used to know whether the lipoxygenase metabolites directly activate the CAP channel.
Because the binding site of CAP was located on the intracellular side of the channel (Oh et al., 1996b), the metabolites were applied to the intracellular sides of cell membrane patches.
In order to compare the agonistic potencies of the various metabolites synthesized by the action of various lipoxygenases, one patch was administered with 0.5 μM of CAP and then, with various lipoxygenase metabolites. At each experiment, the open probabilities (Po) of the channel attributable to the metabolites were recorded and calculated as a percentage to the open probability obtained at 0.5 μM CAP.
All of the lipoxygenase metabolites tested were administered at an amount of 10˜20 μM to the membrane patches of cultured sensory neurons. The relative potency of the metabolites in activating the channel was depicted in FIG. 7. As apparent from this histogram, almost all of the lipoxygenase metabolites, if different in agonistic potency, activate the CAP channel.
12-HPETE was administered at various concentrations from 0.25 to 20 μM to the cell membrane patches of sensory nerve cells, in order to plot a concentration-response curve. As a result, FIG. 8a was obtained. […] Returning now to FIG. 8a, the channel activation currents obtained at each 12-HPETE concentration were calculated as relative degrees to the channel activation current obtained at 20 μM of 12-HEPETE. The relative channel degrees were plotted against the concentrations of […] 12-HPETE and the resulting plot followed the Hill equation.

[2] = system: sensory nerve fibers (c-fibers) of the skin; assay: skin-nerve preparation, action potentials of cutaneous pain nerve c-fibers; design: species or system rats
Method: To recognize whether the excitation of BK on nerve cells is accomplished via the arachidonic acid-lipoxygenase-CAP pathway, in vivo, a measurement was made on the action potentials in the sensory nerve fibers of the rats, as shown in FIGS. 13a and 13b. particularly, pain nerves which exist in the skin were isolated, together with a overlapping area of the skin, and the action potentials were measured from the nerve filaments using skin-nerve preparation (Reeh, 1998; Steen et al., 1992, 1995) as schematically illustrated in FIG. 13a. While unit action potentials measured at the sensory nerve fibers isolated from the skin, frequencies of the action potentials induced by the administration of BK were recorded. An increase in frequency of the action potentials means excitation of the sensory nerves.
The transmission speed of nerve signals were measured and only c-fibers (non-myelinated sensory nerve fibers) were used in the BK response experiment. The reason why c-fibers are used only is that they consist mainly of pain nerve cells (Willis and Coggeshall, 1991; Yaksh, 1986).
With reference to FIG. 13b, there are illustrated the action potential behaviors of the cutaneous pain nerve in response to agonist and antagonist samples. […] In order to recognize whether the nerve excitation of BK was attributed to the opening of CAP channels, CZP was administered at a dose of 10 μM, together with BK, to the skin. […] An experiment in which BK was administered alone or in combination with CZP to the skin, was repeated 20 times with the aim of testing the influence which BK and a combination of BK and CZP had on the activation of nerve cells, and the results are summarized as shown in FIG. 13c.
When the sensory nerve fibers were excited in response to BK, inhibitors against the enzymes required for the arachidonic acid-lipoxygenase-CAP receptor pathway were used in order to identify whether the response passed through the pathway. In the histogram of FIG. 14, the bar length of each inhibitor represents % activation relative to the activation effect obtained when BK was used alone in absence of any inhibitor. For example, CZP, if added along with BK, suppressed the activation response to BK by approximately […].

[3] = system: cultured sensory nerve cells; assay: whole-cell currents in cultured sensory nerve cells in response to BK; format: cell-based; conditions: CZP 10 μM; 5 μM of BK
Text: When taking various experimental results previously obtained into account, it was inferred that BK has a possibility to open CAP channels through the arachidonic acid-lipoxygenase pathway. To confirm this inference, an examination was made regarding whether the currents generated in cultured sensory nerve sells in response to BK were diminished by CZP or other lipoxygenase inhibitors. If BK made CAP channel open via the arachidonic acid-lipoxygenase pathway, the current response to BK must be reduced by CZP. However, rarely did the cultured cells respond to BK.

CAP channel [4] = biological target: T1, CAP channel; assay: single channel current recording with patch clamp technique, inside-out membrane patches of cultured sensory neurons; format: cell-based

T1 sequence (O35433 whole entry): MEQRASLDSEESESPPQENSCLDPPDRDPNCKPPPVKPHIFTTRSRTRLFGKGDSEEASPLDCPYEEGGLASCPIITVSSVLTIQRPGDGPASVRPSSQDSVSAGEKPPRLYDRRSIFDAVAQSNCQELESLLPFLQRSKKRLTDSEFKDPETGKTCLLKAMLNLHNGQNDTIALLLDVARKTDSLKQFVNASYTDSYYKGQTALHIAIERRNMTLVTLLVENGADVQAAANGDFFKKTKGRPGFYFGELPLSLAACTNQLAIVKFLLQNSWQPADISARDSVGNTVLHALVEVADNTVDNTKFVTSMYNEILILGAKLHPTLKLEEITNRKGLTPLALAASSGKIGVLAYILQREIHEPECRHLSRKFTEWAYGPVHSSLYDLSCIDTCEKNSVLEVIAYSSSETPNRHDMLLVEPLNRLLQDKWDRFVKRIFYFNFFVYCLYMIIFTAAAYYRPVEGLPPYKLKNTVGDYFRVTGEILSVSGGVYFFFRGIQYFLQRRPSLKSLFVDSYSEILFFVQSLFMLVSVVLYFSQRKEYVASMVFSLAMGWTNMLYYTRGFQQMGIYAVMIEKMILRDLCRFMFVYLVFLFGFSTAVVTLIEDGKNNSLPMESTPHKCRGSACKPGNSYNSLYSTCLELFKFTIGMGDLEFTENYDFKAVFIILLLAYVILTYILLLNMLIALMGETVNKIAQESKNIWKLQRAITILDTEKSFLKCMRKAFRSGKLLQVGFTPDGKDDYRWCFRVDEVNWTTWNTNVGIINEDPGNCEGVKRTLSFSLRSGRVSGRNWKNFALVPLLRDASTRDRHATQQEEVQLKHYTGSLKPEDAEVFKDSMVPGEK

SMILES: CCCCC/C=C\CC(/C=C/C=C\C/C=C\CCCC(=O)O)OO (centres unmarked) [12-HPETE, 12-hydroperoxyeicosatetraenoic acid]
patches in which activation of CAP channels was detected (CAP channel [1]; 12-HPETE 2-20 μM, of the 97 patch samples tested): 88 patches
Po channel open probability (CAP channel [1]; 12-HPETE alone, increased from 0.0, n=4): 0.019±0.0002
reversal potential (CAP channel [1]; bi-ionic system 140 mM Na+ / 140 mM K+, 2~10 μM 12-HPETE): −1.71±0.49 mV
permeability ratio of K+/Na+ (PK/PNa) (CAP channel [1]; calculated from bi-ionic system experiment): 1.1
Hill coefficient (CAP channel [1]): 2.4
amplitude of the single channel currents (CAP channel [1]): 2.68±0.012 pA
relative agonistic potency (Po as percentage of Po at 0.5 μM CAP) (CAP channel [1]): most potent endogenous agonist; also recorded: highest agonistic potency

Hill coefficient (CAP channel [1]): 2.4
amplitude of the single channel currents (CAP channel [1]): 2.72±0.06 pA
SMILES: COc1cc(CNC(=O)CCCC/C=C/C(C)C)ccc1O [CAP, capsaicin]
action potentials of the nerve fibers (excitation) ([2]; administered to skin patch, BK 1 μM): largely increased action potentials
generation of single channel currents (activation of CAP channel) (CAP channel [1]): single channel current which was greatly generated

Po channel open probability (CAP channel [1]; co-existence of 10 μM of CZP and 10 μM of 12-HPETE): 0.001±0.000002
SMILES: Oc1cc2c(cc1O)CN(C(=S)NCCc1ccc(Cl)cc1)CCC2 [CZP, capsazepine]
effect on current generated by BK [3]: reduced the current
effect on response of skin nerve to BK ([2]; CZP 10 μM together with BK): Great suppression
effect on single channel currents activated by 12-HPETE (CAP channel [1]; 10 μM of CZP present): single channel currents were not observed

SMILES: COc1ccc2c(c1)c(CC(=O)O)c(C)n2C(=O)c1ccc(Cl)cc1 [INDO, indomethacin]
effect on the BK response ([2]; 2 μM indomethacin): failed to inhibit the BK response

SMILES: CC(Cc1ccc(O)c(O)c1)C(C)Cc1ccc(O)c(O)c1 (centres unmarked) [NDGA, nordihydroguaiaretic acid]
lowering of the activation of BK ([2]; 50 μM of NDGA, relative to BK alone): 70%
effect on single channel current generated by arachidonic acid (CAP channel [4]; NDGA administered together with arachidonic acid): reversibly controlled depending on the presence or absence of NDGA

generation of single channel currents (activation of CAP channel) (CAP channel [1]): no channel currents were generated
SMILES: CCCCC[C@H](O)/C=C/[C@H]1C(=O)C[C@H](O)[C@@H]1C/C=C\CCCC(=O)O [PGD2]

generation of single channel currents (activation of CAP channel) (CAP channel [1]): no channel currents were generated
SMILES: CCCCC[C@H](O)/C=C/[C@H]1[C@H](O)CC(=O)[C@@H]1C/C=C\CCCC(=O)O [PGE2, prostaglandin E2]

generation of single channel currents (activation of CAP channel) (CAP channel [1]): no channel currents were generated
SMILES: CCCCC[C@H](O)/C=C/[C@@H]1[C@H]2C/C(=C/CCCC(=O)O)O[C@H]2C[C@H]1O [PGI2]

SMILES: CCN(CC)CCCC(C)Nc1c2ccc(Cl)cc2nc2ccc(OC)cc12 (centres unmarked) [QN, Quinacrine]
suppressive effect on the activation response to BK ([2]; relative to BK alone): 70%

experiments in which channel currents were weakly induced (CAP channel [4]; arachidonic acid 10 to 50 μM): 54%
experiments in which the CAP channels were not activated (CAP channel [4]; arachidonic acid 10 to 50 μM): approximately 46%
trials in which the CAP channels were not activated (CAP channel [4]; arachidonic acid 10 to 50 μM, of 69 trials): 32 trials
SMILES: CCCCC/C=C\C/C=C\C/C=C\C/C=C\CCCC(=O)O [arachidonic acid]

relative agonistic potency (Po as percentage of Po at 0.5 μM CAP) (CAP channel [1]): poor in the activation potency
SMILES: CCCCC/C=C\C[C@@H](O)/C=C/C=C/C=C\[C@@H](O)CCCC(=O)O [leukotriene B4]
